Reference: publication PMC9237828, “Chemically Tuning Resveratrol for the Effective Killing of Gram-Positive Pathogens” (Journal of Natural Products, 2022)
≈ marks a conversion by molar mass, not a printed value.

Key:
[1] = test system: E. faecium LMG16003; test: Combined action with antibiotics (MIC reduction, checkerboard FICI); assay type: cell-based
[2] = test system: S. aureus LMG8224; test: as above; assay type: cell-based, Staphylococcus aureus; conditions: for MIC of antibiotic in combination with RES: RES at 4 μM; for FICI, antibiotic with 15 / FICI, antibiotic with 17: fractional inhibitory concentration index, EUCAST, * means relevant FICI values
[3] = test system: C. beijerinckii B504; test: MIC test, anaerobes; assay type: cell-based; conditions: Clostridium beijerinckii, B504, 24 h; read-out: Minimal Inhibition Concentration (MIC) C. beijerinckii B504
Experimental: (§1) The resveratrol derivatives were serially diluted in cMHB (BD Difco) in 96-well microplates. Plates were then inoculated with the indicator bacteria at a final concentration of 5 × 10^5 CFU/mL and incubated at 37 °C for 20 h. In the case of the anaerobic bacteria (Clostridium and Clostridioides), the test was performed following the recommendation of CLSI for anaerobes[77] but using RCM medium instead of cMHB. The cultures were cultivated inside an anaerobic chamber at 37 °C for 24 h. All the tests were performed in triplicate.

[4] = test system: C. botulinum CECT551; test: microbe, parasite or virus in culture; assay type: cell-based; conditions: Clostridium botulinum, CECT551, 24 h, read-out: Minimal Inhibition Concentration (MIC) C. botulinum CECT551
[5] = test system: C. tetani CECT4629; test: microbe, parasite or virus in culture; assay type: cell-based; conditions: Clostridium tetani, CECT4629, 24 h, read-out: Minimal Inhibition Concentration (MIC) C. tetani CECT4629
[6] = test system: panel of aerobic and anaerobic Gram-positive bacteria; test: organism not typed; assay type: cell-based
[7] = test system: B. cereus ATCC10987; test: microbe, parasite or virus in culture; assay type: cell-based, Bacillus cereus; conditions: Bacillus cereus, ATCC10987, 20 h, read-out: Minimal Inhibition Concentration (MIC) B. cereus ATCC10987
[8] = test system: B. cereus ATCC14579; test: microbe, parasite or virus in culture; assay type: cell-based, Bacillus cereus; conditions: Bacillus cereus, ATCC14579, 20 h, read-out: Minimal Inhibition Concentration (MIC) B. cereus ATCC14579
[9] = test system: C. ihumii AP5; test: MIC test, anaerobes; assay type: cell-based; conditions: 24 h; read-out: Minimal Inhibition Concentration (MIC) C. ihumii AP5
Experimental: as §1

[10] = test system: C. perfringens CECT376; test: microbe, parasite or virus in culture; assay type: cell-based; conditions: Clostridium perfringens, CECT376, 24 h, read-out: Minimal Inhibition Concentration (MIC) C. perfringens CECT376

Compound | MIC of antibiotic alone (Ab) [1] [µM] | MIC of antibiotic in combination with 17 ([2]; 17 at 2 μM) [µM] | MIC of antibiotic in combination with 17 ([2]; 17 at 4 μM) [µM] | MIC of antibiotic in combination with RES [2] [µM] | MIC of antibiotic alone (Ab) [2] [µM] | FICI, antibiotic with 17 [2] | antibacterial activity against the Gram-positive panel [6] | further results
NCC[C@H](O)C(=O)N[C@@H]1C[C@H](N)[C@@H](O[C@H]2O[C@H](CN)[C@@H](O)[C@H](O)[C@H]2O)[C@H](O)[C@H]1O[C@H]1O[C@H](CO)[C@@H](O)[C@H](N)[C@H]1O [Ami, amikacin] | >32 | 3.3 ± 0.5 | 0.8 ± 0.1 | 8 ± 0 | 8 ± 0 | 0.60 |  | MIC of antibiotic in combination with 15 ([2]; 15 at 2 μM): 2 ± 0 µM; MIC of antibiotic in combination with 15 ([2]; 15 at 4 μM): 0.5 ± 0 µM; FICI, antibiotic with 15 [2]: 0.31
NC[C@H]1O[C@H](O[C@H]2[C@H](O)[C@@H](O[C@H]3O[C@H](CO)[C@@H](O)[C@H](N)[C@H]3O)[C@H](N)C[C@@H]2N)[C@H](O)[C@@H](O)[C@@H]1O [Kan, kanamycin] | >32 | 2 ± 0 | 1 ± 0 | 4 ± 0 | 4 ± 0 | 0.75 |  | MIC of antibiotic in combination with 17 ([1]; 17 at 4 μM): 32 ± 0 µM; FICI, antibiotic with 17 ([1]; fractional inhibitory concentration index, EUCAST, * means relevant FICI values): 1*; MIC of antibiotic in combination with 15 ([2]; 15 at 2 μM): 2 ± 0 µM; MIC of antibiotic in combination with 15 ([2]; 15 at 4 μM): 0.6 ± 0.1 µM; FICI, antibiotic with 15 [2]: 0.41
[H]/N=C(/N)N[C@H]1[C@H](O)[C@@H](O)[C@H](O[C@@H]2O[C@@H](C)[C@](O)(C=O)[C@H]2O[C@@H]2O[C@@H](CO)[C@H](O)[C@@H](O)[C@@H]2NC)[C@@H](N/C(N)=N\[H])[C@@H]1O [Str, streptomycin] | 32 ± 0 | 8 ± 0 | 4 ± 0 | 16 ± 0 | 16 ± 0 | 0.75 |  | 
CCCCCCCC(=O)OC[C@H]1O[C@@H](Oc2cc(O)cc(/C=C/c3ccc(O)cc3)c2)[C@H](O)[C@@H](O)[C@@H]1O [compound 3] |  |  |  |  |  |  |  | MIC [3]: 32 µM (≈ 16.5 µg/mL); MIC [4]: 32 µM (≈ 16.5 µg/mL); MIC [5]: 21.3 ± 5.3 µM (≈ 11 µg/mL)
O=S(=O)(O)Oc1ccc(/C=C/c2cc(O)cc(OS(=O)(=O)O)c2)cc1 [compound 7, Resveratrol 3,4′-disulfate] |  |  |  |  |  |  | did not show antibiotic activity | 
CCOc1cc(O)cc(/C=C/c2ccc(O)cc2)c1 [compound 10] |  |  |  |  |  |  |  | MIC [7]: 128 µM (≈ 32.8 µg/mL); MIC [8]: 128 µM (≈ 32.8 µg/mL)
CC(C)(C)[Si](C)(C)Oc1cc(/C=C/c2ccc(O)cc2)cc(O[Si](C)(C)C(C)(C)C)c1 [compound 18] |  |  |  |  |  |  | not active or displayed very low antibacterial activity | 
CC(C)(C)[Si](C)(C)Oc1ccc(/C=C/c2cc(O)cc(O[Si](C)(C)C(C)(C)C)c2)cc1 [compound 19] |  |  |  |  |  |  | not active or displayed very low antibacterial activity | MIC [3]: 32 µM (≈ 14.6 µg/mL); MIC [9]: 128 µM (≈ 58.5 µg/mL); MIC [4]: 53.3 ± 10.6 µM (≈ 24.3 µg/mL); MIC [10]: 128 µM (≈ 58.5 µg/mL); MIC [5]: 5.3 ± 1.3 µM (≈ 2.42 µg/mL)
